Key:
[1] = system: parental C2BBe1 cells (wild type); details: Caco-2
Experimental: (§1) Both wild type cells (parental C2BBe1 cells) and BCRP knockout cells were seeded onto 24-well transwell plates and cultured for 21 days, following a standard protocol for intestinal efflux transporter assays previously developed using Caco-2 cells. The permeability of test compounds in both the apical to basal (A to B) and basal to apical (B to A) directions was measured following a two hour incubation and the efflux values calculated. […] Digoxin is a known MDR1 substrate, while CDCFDA is selective for the MRP2 transporter. Two additional compounds were used as controls, atenolol and metoprolol, which are known to not be substrates for either of these transporters.
(§2) The BCRP and MDR1 transporter genes were individually knocked out and an MDR1/BCRP double knockout was also generated in C2BBe1 cells using zinc finger nuclease technology. Cells were analyzed and expanded as described above and then tested for functional activity in the standard transwell assay. Two substrates were utilized—estrone 3-sulfate as a selective substrate for BCRP and digoxin as a selective substrate for MDR1. Metoprolol was used as a control.

[2] = system: MDR1/BCRP double knockout C2BBe1 cells
Experimental: as §1, §2

[3] = system: MDR1 knockout C2BBe1 cells
Experimental: as §1, §2

[4] = system: BCRP knockout C2BBe1 cells
Experimental: The wild-type BCRP gene was knocked out in C2BBe1 cells using zinc finger nuclease technology to generate a stable cell line. Cells were sorted and single cell cloned. Cells were analyzed for the desired mutations and positive clones were chosen for further expansion and analysis. Quantitative PCR was used to evaluate mRNA expression of the cell and compared to wild type cell. Whole cell lysates prepared from these clones were subjected to immunoblotting for analysis of BCRP protein expression level. […] A single BCRP knockout cell clone was selected for functional characterization of efflux activity using several known transporter-selective substrates (e.g. estrone 3-sulfate, digoxin and CDCFDA).
as §1, §2

efflux ratio [1] | efflux ratio [2] | efflux ratio [3] | efflux ratio [4] | efflux ratio in the knockout cells compared to the parental cells [4] | Structure (SMILES)
high | inhibited | inhibited | high | unaffected | C[C@H]1O[C@@H](O[C@H]2[C@@H](O)C[C@H](O[C@H]3[C@@H](O)C[C@H](O[C@H]4CC[C@@]5(C)[C@H](CC[C@@H]6[C@@H]5C[C@@H](O)[C@]5(C)[C@@H](C7=CC(=O)OC7)CC[C@]65O)C4)O[C@@H]3C)O[C@@H]2C)C[C@H](O)[C@@H]1O [digoxin]
high | inhibited | high | inhibited | greatly reduced | C[C@]12CC[C@@H]3c4ccc(OS(=O)(=O)O)cc4CC[C@H]3[C@@H]1CCC2=O [estrone 3-sulfate]

— patent publication US20160266093A1, “CELLS HAVING DISRUPTED EXPRESSION OF PROTEINS INVOLVED IN ADME AND TOXICOLOGY PROCESSES” (SIGMA-ALDRICH CO. LLC, priority 2010, published 2016)
